Molecules are shown by their SMILES. Read-outs that look alike come from different tables or passages of the source.

Common to all, as to format: in vivo
One data set relates to Spodoptera litura. Description: Efficacy test against Spodoptera litura (cabbage leaf immersion). The conditions noted are these: 144 h, read-out: mortality of Spodoptera litura. Here is the method: A cabbage leaf was immersed in the diluted solution for 30 seconds. The cabbage leaf was air-dried and then put in a petri dish, followed by leaving five second-instar larvae of Spodoptera litura therein. The petri dish was placed in a thermostatic chamber at a temperature of 25°C and a humidity of 60%. After six days had passed from leaving the larvae, life or death was assessed and the mortality was calculated. The test was repeated twice.

For a further data set, the system named is Mythimna separata. Description: Efficacy test against Mythimna separata (treated artificial feed). The conditions noted are these: 1 µl of emulsion (I) (5% by mass active ingredient) mixed with 0.8 g artificial feed; second-instar larvae; 25°C; after five days. Here is the method: (§1) 5 parts by mass of a compound of the present invention, 93.6 parts by mass of dimethylformamide, and 1.4 parts by mass of polyoxyethylene alkyl aryl ether were mixed and dissolved to obtain an emulsion (I) containing 5% by mass of the active ingredient.
0.8 g of commercially-available artificial feed (Insect LFS, manufactured by Nosan Corporation) and 1 µl of the emulsion (I) were mixed well, and then 0.2 g of the mixture per treated area was packed into plastic test containers (each having a capacity of 1.4 ml) as test feeds.
Two second-instar larvae of Mythimna separata were left per treated area, and then the test containers were sealed with plastic covers. The test containers were placed in a thermostatic chamber at 25°C, and, after five days had passed therefrom, the mortality and the feed intake were measured. The test was repeated twice.
In addition, the test was carried out under the same conditions as described above, except that the emulsion (II) was used instead of the emulsion (I), and evaluated as a solvent control area.

The next data set concerns Plutella xylostella. Description: Efficacy test against Plutella xylostella (cabbage leaf immersion). The conditions noted are these: 72 h. Here is the method:
The emulsion (II) was diluted with water at the same dilution ratio as the diluted solution (I), thereby obtaining a diluted solution (II). A cabbage leaf was immersed in each of the diluted solutions for 30 seconds. Each cabbage leaf after immersion was air-dried and then put in a petri dish, followed by leaving five second-instar larvae of Plutella xylostella therein. The petri dishes were placed in a thermostatic chamber at a temperature of 25°C and a humidity of 60%. After three days had passed from leaving the larvae, life or death was assessed and the mortality was calculated. The test was repeated twice.

A further data set has as its system Phyllotreta striolata. Description: Efficacy test against Phyllotreta striolata (sprayed bok-choy seedling). The note with it: 168 h, read-out: mortality against the adults of Phyllotreta striolata. The procedure:
as §1
The emulsion (I) was diluted with water such that the concentration of the compound of the present invention became 125 ppm by mass. The diluted solution was sprayed to a bok-choy seedling (at the 7th leafe stage) planted in a 3-sun pot. After air-dried, the bok-choy seedling was placed in a plastic cup, and ten adults of Phyllotreta striolata were left therein. The plastic cup was placed in a thermostatic chamber at a temperature of 25°C and a humidity of 65%. After seven days had passed from leaving the adults, life or death was assessed and the mortality was calculated. The test was repeated twice.

[1] abbreviates: 125 ppm by mass, cabbage leaf immersed 30 seconds, second-instar larvae, 25°C, humidity 60%, after six days.
The mark [2] stands for this setting: 125 ppm by mass, cabbage leaf immersed 30 seconds, second-instar larvae of Plutella xylostella, 25°C, humidity 60%, after three days, read-out: mortality.
Where [3] appears, read: 125 ppm by mass, sprayed to bok-choy seedling, adults, 25°C, humidity 65%, after seven days.

Turning to `Cn1c[n+]([N-]C(=O)c2cc(Cl)nc(Oc3ccc(OC(F)(F)F)cc3)c2)cn1` [Compound 2], the mortality at 125 ppm with Spodoptera litura (setting [1]) is not below 80%. Besides, the “mortality of Mythimna separata or feed intake relative to the feed intake at the solvent control area” value in the data set on Mythimna separata is 100% mortality of Mythimna separata or 10% or less of the feed intake.
As for `O=C([N-][n+]1ccccc1)c1cc(Cl)nc(Oc2ccc(OC(F)(F)C(F)F)cc2)c1` [Compound 4], the mortality at 125 ppm in the data set with Spodoptera litura (setting [1]) and with Plutella xylostella (setting [2]) was not below 80% in each case. The “mortality of Mythimna separata or feed intake relative to the feed intake at the solvent control area” value with Mythimna separata was 100% mortality of Mythimna separata or 10% or less of the feed intake.
As to `Cc1cc[n+]([N-]C(=O)c2cc(Cl)nc(Oc3ccc(OC(F)(F)C(F)(F)F)cc3)c2)cc1` [Compound 5], the mortality at 125 ppm in the data set on Spodoptera litura (setting [1]) and in the data set on Plutella xylostella (setting [2]) was not below 80% in each case.
Consider `COc1cc[n+]([N-]C(=O)c2cc(Cl)nc(Oc3ccc(OC(F)(F)C(F)(F)F)cc3)c2)cc1` [Compound 6], for which the mortality at 125 ppm in the data set with Spodoptera litura (setting [1]) and in the data set with Plutella xylostella (setting [2]) was not below 80% in each case.
Consider `Cn1c[n+]([N-]C(=O)c2cc(Cl)nc(Oc3ccc(OC(F)(F)C(F)(F)F)cc3)c2)cn1` [Compound 8], for which the mortality at 125 ppm with Spodoptera litura (setting [1]) was not below 80%.
For `Cn1cc[n+]([N-]C(=O)c2cc(Cl)nc(Oc3ccc(OC(F)(F)C(F)(F)F)cc3)c2)c1` [Compound 9], the mortality at 125 ppm with Spodoptera litura (setting [1]) and in the data set on Plutella xylostella (setting [2]) was not below 80% in each case.
For the compound `O=C([N-][n+]1cccc(F)c1)c1cc(Cl)nc(Oc2ccc(OC(F)(F)C(F)F)cc2)c1` [Compound 11], the mortality at 125 ppm with Spodoptera litura (setting [1]) and in the data set with Plutella xylostella (setting [2]) was not below 80% each time.
Consider `O=C([N-][n+]1ccccc1)c1cc(Br)nc(Oc2ccc(OC(F)(F)C(F)(F)F)cc2)c1` [Compound 12], for which the mortality at 125 ppm in the data set on Spodoptera litura (setting [1]) and with Plutella xylostella (setting [2]) was not below 80% in each case.
On to `O=C([N-][n+]1ccccc1)c1cc(Br)nc(Oc2ccc(OC(F)(F)C(F)F)cc2)c1` [Compound 13], for which the mortality at 125 ppm in the data set on Spodoptera litura (setting [1]) and with Plutella xylostella (setting [2]) was not below 80% in each case.
Turning to `N#Cc1cc(C(=O)[N-][n+]2ccccc2)cc(Oc2ccc(OC(F)(F)C(F)(F)F)cc2)n1` [Compound 14], the mortality at 125 ppm with Spodoptera litura (setting [1]) and in the data set on Plutella xylostella (setting [2]) was not below 80% throughout.
As to `O=C([N-][n+]1ccccc1)c1cc(Cl)nc(Oc2ccc(C3(C(F)(F)F)CC3)cc2)c1` [Compound 15], the mortality at 125 ppm in the data set on Spodoptera litura (setting [1]) and with Plutella xylostella (setting [2]) was not below 80% throughout.
On to `O=C([N-][n+]1ccccc1)c1cc(Cl)nc(Oc2ccc(OC(F)(F)C(F)OC(F)(F)F)cc2)c1` (stereo not drawn) [Compound 16], for which the mortality at 125 ppm in the data set with Spodoptera litura (setting [1]) and in the data set with Plutella xylostella (setting [2]) was not below 80% throughout.
Regarding `O=C([N-][n+]1cnn(CC(F)(F)F)c1)c1cc(Cl)nc(Oc2ccc(OC(F)(F)C(F)(F)F)cc2)c1` [Compound 17], the mortality at 125 ppm in the data set with Spodoptera litura (setting [1]) and in the data set on Plutella xylostella (setting [2]) was not below 80% throughout.
For the compound `O=C([N-][n+]1cnn(CC(F)F)c1)c1cc(Cl)nc(Oc2ccc(OC(F)(F)C(F)(F)F)cc2)c1` [Compound 18], the mortality at 125 ppm in the data set on Spodoptera litura (setting [1]) and in the data set with Plutella xylostella (setting [2]) was not below 80% each time.
As for `CC(C)n1c[n+]([N-]C(=O)c2cc(Cl)nc(Oc3ccc(OC(F)(F)C(F)(F)F)cc3)c2)cn1` [Compound 19], the mortality at 125 ppm in the data set with Spodoptera litura (setting [1]), in the data set with Phyllotreta striolata (setting [3]) and with Plutella xylostella (setting [2]) was not below 80% each time.
With `O=C([N-][n+]1ccccc1)c1cc(Cl)nc(Oc2ccc(OC(F)(F)C(F)OC(F)(F)C(F)(F)C(F)(F)F)cc2)c1` (stereo not drawn) [Compound 20], the mortality at 125 ppm in the data set on Spodoptera litura, in the data set on Phyllotreta striolata and in the data set on Plutella xylostella (Plutella xylostella) was not below 80% in each case.
As to `CCn1c[n+]([N-]C(=O)c2cc(Cl)nc(Oc3ccc(OC(F)(F)C(F)OC(F)(F)C(F)(F)C(F)(F)F)cc3)c2)cn1` (stereo not drawn) [Compound 21], the mortality at 125 ppm in the data set with Spodoptera litura, in the data set with Phyllotreta striolata and in the data set on Plutella xylostella (Plutella xylostella) was not below 80% throughout.
With `O=C([N-][n+]1ccccc1)c1cc(Cl)nc(Oc2ccc(OC(F)(F)C(F)OC(F)(F)C(F)(F)C(F)(F)OC(F)(F)F)cc2)c1` (stereo not drawn) [Compound 22], the mortality at 125 ppm in the data set on Spodoptera litura, in the data set with Phyllotreta striolata and in the data set with Plutella xylostella (Plutella xylostella) was not below 80% throughout.
As to `CCn1c[n+]([N-]C(=O)c2cc(Cl)nc(Oc3ccc(OC(F)(F)C(F)OC(F)(F)C(F)(F)C(F)(F)OC(F)(F)F)cc3)c2)cn1` (stereo not drawn) [Compound 23], the mortality at 125 ppm with Spodoptera litura, in the data set with Phyllotreta striolata and with Plutella xylostella (Plutella xylostella) was not below 80% in each case.
On to `O=C([N-][n+]1ccccc1)c1cc(Cl)nc(Oc2ccc(SC(F)(F)F)cc2)c1` [Compound 25, (2-chloro-6-(4-((trifluoromethyl)thio)phenoxy)isonicotinoyl) (pyridin-1-ium-1-yl)amide], for which the mortality at 125 ppm in the data set with Spodoptera litura (setting [1]), in the data set on Phyllotreta striolata (setting [3]) and with Plutella xylostella (setting [2]) was not below 80% each time.
As for `CCn1c[n+]([N-]C(=O)c2cc(Cl)nc(Oc3ccc(OC(F)(F)F)cc3)c2)cn1` [Compound 165, (2-chloro-6-(4-(trifluoromethoxy)phenoxy)isonicotinoyl)(1-ethyl-1H-1,2,4-triazol-4-ium-4-yl)amide], the mortality at 125 ppm in the data set on Spodoptera litura (setting [1]) and in the data set with Plutella xylostella (setting [2]) was not below 80% each time. The “mortality of Mythimna separata or feed intake relative to the feed intake at the solvent control area” value in the data set with Mythimna separata was 100% mortality of Mythimna separata or 10% or less of the feed intake.
Regarding `O=C([N-][n+]1ccccc1)c1cc(Oc2ccc(OC(F)(F)F)cc2)nc(-c2ccc(F)cc2)c1` [Compound 207], the mortality at 125 ppm in the data set with Spodoptera litura (setting [1]) and with Plutella xylostella (setting [2]) was not below 80% each time. Moreover, in the data set with Mythimna separata, the “mortality of Mythimna separata or feed intake relative to the feed intake at the solvent control area” value is given as 100% mortality of Mythimna separata or 10% or less of the feed intake.
With `O=C([N-][n+]1ccccc1)c1cc(Oc2ccc(OC(F)(F)F)cc2)nc(Oc2ccc(OC(F)(F)F)cc2)c1` [Compound 208], the mortality at 125 ppm with Spodoptera litura (setting [1]) and with Plutella xylostella (setting [2]) was not below 80% throughout.
Consider `N#Cc1ccc(Oc2cc(C(=O)[N-][n+]3ccccc3)cc(Cl)n2)cc1` [Compound 209], for which the “mortality of Mythimna separata or feed intake relative to the feed intake at the solvent control area” value with Mythimna separata is on record as 100% mortality of Mythimna separata or 10% or less of the feed intake.
On the same count and under the same terms, in the case of `CCn1c[n+]([N-]C(=O)c2cc(Cl)nc(Oc3ccc(C4CC4(Cl)Cl)cc3)c2)cn1` (stereo not drawn) [Compound 210] it was 100% mortality of Mythimna separata or 10% or less of the feed intake; in that of `CCn1c[n+]([N-]C(=O)c2cc(Cl)nc(Oc3ccc(C4CC4(F)F)cc3)c2)cn1` (stereo not drawn) [Compound 212], 100% mortality of Mythimna separata or 10% or less of the feed intake; in that of `O=C([N-][n+]1ccccc1)c1cc(Cl)nc(Oc2ccc(C3CC3(F)F)cc2)c1` (stereo not drawn) [Compound 213], 100% mortality of Mythimna separata or 10% or less of the feed intake.
With `O=C([N-][n+]1ccccc1)c1cc(Oc2ccc(OC(F)(F)C(F)(F)F)cc2)nc(C2CC2)c1` [Compound 215, (2-cyclopropyl-6-(4-(perfluoroethoxy)phenoxy)isonicotinoyl)(pyridin-1-ium-1-yl)amide], the mortality at 125 ppm in the data set with Spodoptera litura (setting [1]) and in the data set with Plutella xylostella (setting [2]) was not below 80% throughout. In addition, in the data set on Mythimna separata, the “mortality of Mythimna separata or feed intake relative to the feed intake at the solvent control area” value was 100% mortality of Mythimna separata or 10% or less of the feed intake.
Consider `CCn1c[n+]([N-]C(=O)c2cc(Cl)nc(Oc3ccc4nc(C(F)(F)F)ccc4c3)c2)cn1` [Compound 216], for which the “mortality of Mythimna separata or feed intake relative to the feed intake at the solvent control area” value with Mythimna separata is reported as 100% mortality of Mythimna separata or 10% or less of the feed intake.
With `O=C([N-][n+]1ccccc1)c1cc(Cl)nc(Oc2cnn(C=C(F)C(F)(F)F)c2)c1` [Compound 217], in the data set with Spodoptera litura (setting [1]), the mortality at 125 ppm is not below 80%.
On to `COC(=O)c1cc(C(=O)[N-][n+]2ccccc2)cc(Oc2ccc(OC(F)(F)C(F)(F)F)cc2)n1` [Compound 220], for which the mortality at 125 ppm in the data set with Plutella xylostella (setting [2]) was not below 80%.
On to `O=C([N-][n+]1ccccc1)c1cc(Oc2ccc(SC(F)(F)C(F)F)cc2)nc(-n2cccn2)c1` [Compound 221], for which the mortality at 125 ppm in the data set on Spodoptera litura (setting [1]) and in the data set with Plutella xylostella (setting [2]) was not below 80% each time.

The record behind these values is patent EP4574818A1, “ONIUM SALT OF NITROGEN-CONTAINING HETEROARYL COMPOUND AND PEST CONTROL AGENT” (priority 2022, dated 2024).
